The subject of this assay is re-aggregated PSA-NCAM+ cells (neural progenitor cells derived from mouse iPS cell line 440A3). The assay can be described thus: In vitro differentiation of mouse iPS cell-derived neural progenitor cells into dopaminergic neurons (immunocytochemistry for marker molecules). It is filed as cell-based. The settings on record: for ratio of TH+ cells: day 10 to 14, control 5.2±1.1%. How it is done: DMEM contained 1% fetal bovine serum (FBS), 5% knockout serum replacement (KSR; manufactured by Invitrogen), 0.1 mM non-essential amino acids, 1 mM sodium pyruvate, 0.1 mM 2-mercaptoethanol (2-ME; manufactured by Invitrogen), 2000 U/ml leukemia inhibitory factor (manufactured by Invitrogen), and 1.5 μg/ml puromycin. In order to differentiate and induce the iPS cells into neural cells, serum-free floating culture of embryoid bodies-like aggregates (SFEB) was employed. Specifically, aggregates of the 440A3 cells were separated into individual cells by using 0.25% trypsin/1 mM EDTA (ethylenediaminetetraacetic acid), and the resultant cells were seeded in a 96-well low adhesion plate (product name: Lipidure-Coat Plate A-US96, manufactured by NOF Corporation) at a concentration (cell density) of 3000 cells/well. Thereafter, re-aggregation of the 440A3 cells was induced in a differentiation medium containing GMEM (Glasgow Minimum Essential Medium), 5% KSR, 0.1 mM non-essential amino acids, 1 mM sodium pyruvate and 0.1 mM 2-ME, and this day was defined as day 0 (FIG. 1). During this differentiation process, various factors were added to the differentiation medium for inducing midbrain dopaminergic phenotypes as illustrated in FIG. 1. Specifically, from day 3 to day 7 after starting the SFEB, 20 ng/ml of mouse FGF-8b (manufactured by R & D Systems) was added, from day 4 to day 7 after starting the SFEB, 10 ng/ml of recombinant mouse sonic hedgehog (C25I1) N-terminus (manufactured by R & D Systems) was added, and on and after day 7 after starting the SFEB, 1% N-2 supplement (manufactured by Gibco) and 200 nM ascorbic acid were added. The KSR was removed from the differentiation medium on day 7 after starting the SFEB.
On day 9 after starting the SFEB, the 440A3 cells were washed with phosphate buffered saline (PBS(-)) twice. Thereafter, the 440A3 cells were dissociated into single cells by five-minute incubation performed at 37° C. by using Accumax (manufactured by Innovate Cell Technologies, product name). The cells were collected with a FACS buffer. The FACS buffer was constituted by PBS(-) containing 2% FBS, 20 mM D-glucose and 1% penicillin/streptomycin (P/S, manufactured by Invitrogen). The collected cells were mechanically dissociated into a single cell suspension by a gentle pipetting operation.
Next, the resultant cells were incubated with a mouse anti-PSA-NCAM antibody (dilution rate of 1:200, manufactured by Millipore) at 4° C. for about 30 minutes. Thereafter, a washing operation using a centrifuge was performed twice, and the resultant cells were further incubated for 30 minutes with a secondary antibody of a donkey anti-mouse IgG (dilution rate of 1:400, manufactured by Invitrogen) labeled with AlexaFluor 594. Dead cells and cell debris were excluded by using 7-aminoactinomycin-D (7-AAD, manufactured by BD Pharmigen) stain. The remaining living cells were suspended again at a final concentration (cell density) of 1×10^7 cells/ml. Cell sorting was conducted by using a FACSAria II cell sorter (manufactured by Becton Dickinson And Company) equipped with a 488 nm argon laser, a 633 nm helium-neon laser, a 100 μm nozzle and a FACSDiva software program. A PSA-NCAM positive rate was determined on the basis of a negative control not using a primary antibody.
After the cell sorting, in order to induce the reaggregation of the cells, a PSA-NCAM^+ cell group was seeded in a DMEM/F12 medium (manufactured by Wako Pure Chemical Industries, Ltd.) in a 96-well plate at a concentration (cell density) of 20000 cells/well. The DMEM/F12 medium contained 1% N-2 supplement, 200 nM ascorbic acid, 2% B27 supplement (manufactured by Invitrogen), 0.5 mM L-glutamine and 1% P/S. In order to prevent apoptosis, a ROCK inhibitor, Y-27632 (manufactured by Wako Pure Chemical Industries, Ltd.), was used at a concentration of 30 μM during the cell sorting process and the following overnight cultivation. […]

This note sets out measurements from US20160106719A1, “Transplantation Adjuvant in Cell Therapy Using Neural Progenitor Cells” (SUMITOMO DAINIPPON PHARMA CO., LTD., priority 2013, published 2016).

As for `CCCC(CCC)C(=O)[O-].[Na+]` [VPA, sodium 2-propylpentanoate], the “ratio of TH+ cells” value reads like this: (VPA 0.01 mM) 12.1±1.5%; (VPA 0.1 mM) 11.7±0.4%. Besides, the “ratio of TH+ FOXA2+ cells” value (VPA 0.1 mM, control 0.25±0.22%) was found to be 1.00±0.58%. Further, the “ratio of TH+ NURR1+ cells” value (VPA 0.1 mM, control 0.37±0.32%) worked out at 1.00±0.70%.
